# In ChEMBL document CHEMBL3507680, “University of Dundee, Gates Library screen for HepG2 cell viability”:
# Experiment: Human HepG2 cell viability assay in 384 well format
# Type: toxicity, cell-based
# Set-up: dose 125 nL, time 70.5 hour; cytotoxicity at 70.5 h: concentration not given beside the values
# Details: HepG2 cells, read-out: Inhibition
row,SMILES,cytotoxicity at 70.5 h [%]
1,Cc1nc(C2CCCN2C(=O)CCOCc2ccccc2)no1 (stereo unspecified),-8.94
2,Cc1cnn(C2CCCN(C(=O)c3cccc4c3OCO4)C2)c1 (stereo unspecified),-10.4
3,COCCOc1ncccc1C(=O)N1CCCC1Cn1cc(C)cn1 (stereo unspecified),-12
4,CC(C)c1nc(CN(C)C2CCN(CCn3cc(C#N)cn3)C2)no1 (stereo unspecified),-14.7
5,Cc1nccn1C1CCCN(C(=O)c2cccc3c2OCO3)C1 (stereo unspecified),-9.12
6,Cc1nc(C)n(CC2CCCN(c3ncnc4ccccc34)C2)n1 (stereo unspecified),-6.84
7,Cc1cnn(CC2CCCCN2C(=O)c2ccccc2-n2cccn2)c1 (stereo unspecified),-17.3
8,Cc1cc(C)n(CC2CCCN2C(=O)c2cccnc2N(C)C)n1 (stereo unspecified),-8.62
9,CCc1nccn1C1CCCN(C(=O)c2cccc3c2OCO3)C1 (stereo unspecified),-16
10,O=C(c1ccccc1OC1CCCC1)N1CCCC(n2cncn2)C1 (stereo unspecified),-9.06
11,Cc1nn(C)c(Cl)c1C1CCCN1C(=O)c1cnn(C)c1C1CC1 (stereo unspecified),-14.5
12,CN(C)c1ccc(CNC(=O)NCCc2cccs2)cn1,-12.3
13,CN(C)c1ccc(CNC(=O)NCCc2ccccn2)cn1,-12.8
14,CCn1cnnc1CNC(=O)N(C)Cc1ccc2c(c1)OCO2,-10.2
15,COCCN(Cc1nc2c(cnn2C)c(=O)[nH]1)C(C)c1ccccc1 (stereo unspecified),-2.95
16,O=C(c1cccc2c1OCCO2)N1CCCC(n2cccn2)C1 (stereo unspecified),-8.22
17,CCCOc1cccc(C(=O)N2CCCC(n3cncn3)C2)c1 (stereo unspecified),-13.7
18,O=C(c1cnc(-c2ccccn2)s1)N1CCCC(n2cccn2)C1 (stereo unspecified),10.2
19,c1nc(N2CCCC(Cn3cncn3)C2)c2sccc2n1 (stereo unspecified),-2.8
20,Cc1nc(C)n(CC2CCCCN2c2ncnc3ccsc23)n1 (stereo unspecified),-11.9
21,Cc1cnn(CC2CCCCN2C(=O)c2cccnc2N(C)C)c1 (stereo unspecified),9.64
22,Cc1nccn1CCCC(=O)N1CCC(N(C)c2cccnn2)CC1,-7.52
23,Cc1nn(C)c(Cl)c1C1CCCN1C(=O)c1csnn1 (stereo unspecified),-4.32
24,Cc1nn(C)c(Cl)c1C1CCCN1C(=O)c1cccn1C (stereo unspecified),-10.5
25,Cc1ncsc1C(=O)N1CCCC1c1c(C)nn(C)c1Cl (stereo unspecified),-13.8
26,N#Cc1cc(NS(=O)(=O)c2cc(C(=O)O)cc(Cl)c2Cl)ccc1F,0.738

row,SMILES,cytotoxicity at 70.5 h [%]
1,Cc1c(F)cc(C(=O)O)cc1S(=O)(=O)Nc1ccc(F)c(C#N)c1,-9.42
2,Cc1nn(C)c(C)c1C1CCCN1C(=O)c1nccnc1N (stereo unspecified),-8.84
3,CN(Cc1nnc2n1CCC2)C(=O)c1ccc2c(c1)OCCCO2,18.9
4,Cc1cc(C)n(CC2CCCN2CC(=O)N(C)Cc2ccc(C)o2)n1 (stereo unspecified),18
5,Cc1cc(C)n(CC2CCCN2C(=O)c2c(C)noc2C)n1 (stereo unspecified),18.5
6,O=C(NCCNc1ncccn1)C1CC(=O)N(C2CCCC2)C1 (stereo unspecified),-6.36
7,CC(C)CN1CC(C(=O)NCCNc2ncccn2)CC1=O (stereo unspecified),-0.397
8,O=C(NCCNc1ncccn1)C1CC(=O)N(CC2CC2)C1 (stereo unspecified),16.4
9,CN(Cc1nnc2n1CCC2)C(=O)CCc1ccc2c(c1)OCO2,-7.61
10,CCCS(=O)(=O)NC(C)C(=O)NCc1ccnc(N2CCCC2)c1 (stereo unspecified),-3.25
11,COc1ccccc1NC(=O)NCCCn1nc2ccccn2c1=O,-3.26
12,CC1CCCCN1CCNC(=O)c1ccn(-c2ccccc2)n1 (stereo unspecified),13.6
13,Cc1cc(C)n2cc(CN3CCCC3Cn3nc(C)nc3C)nc2n1 (stereo unspecified),-6.16
14,CCc1nc(C2CCCN2C(=O)c2ccc3c(c2)nnn3CC)no1 (stereo unspecified),-3.25
15,CCc1nc(C2CCCN2C(=O)c2ccc3c(c2)nc(C)n3C)no1 (stereo unspecified),-8.32
16,Cc1cnn(C2CCCN(C(=O)Cc3ccc(-n4cccn4)cc3)C2)c1 (stereo unspecified),-3.4
17,CC(C)c1nc(CN2CCCN(Cc3nnc(C4CC4)o3)CC2)no1,1.11
18,Cc1nc(C)n(CC2CCCN2Cc2nc(N)c3ccccc3n2)n1 (stereo unspecified),-4.33
19,CC(O)CNC(=O)NCc1cccnc1OC1CCCC1 (stereo unspecified),-6.8
20,Cc1cc(NC(=O)CCN(CC2CCOC2)C2CC2)no1 (stereo unspecified),-9.35
21,Cc1cc(CN(C)C(=O)c2ccnc(N(C)C)c2)no1,-7.52
22,Cc1cc(C(=O)NCc2ccc(N3CCCC(C(N)=O)C3)cc2)no1 (stereo unspecified),-12.6
23,COCC(C)NC(=O)c1cc(Br)c2c(c1)OCCO2 (stereo unspecified),-10.9
24,Cc1cnn(CC2CN(CC(=O)N3CCc4ccccc43)CCO2)c1 (stereo unspecified),-10.9
25,Cc1nc(C)n(CC2CCCN2Cc2nc3ccccc3n2C)n1 (stereo unspecified),-7.27
26,Cc1nc(C)n(CC2CCCN2Cc2nc3ccccc3nc2C)n1 (stereo unspecified),3.65

row,SMILES,cytotoxicity at 70.5 h [%]
1,Cc1cc(C)n(C2CCCN(C(=O)c3c(C)c(C)n[nH]c3=O)C2)n1 (stereo unspecified),-8.79
2,OC(CNCCn1cccn1)c1ccc2c(c1)OCCO2 (stereo unspecified),-2.85
3,CC(C)c1nc(C2CCCN2CC(=O)Nc2nncs2)no1 (stereo unspecified),-1.18
4,Cn1c(CN2CCCC2c2noc(C3CC3)n2)cc(=O)n(C)c1=O (stereo unspecified),-9.32
5,CCCc1noc(CN2CCCC2c2c(C)nn(C)c2OC)n1 (stereo unspecified),-7.09
6,CCn1cnnc1CNC(=O)N1CCOCC1,-13.2
7,COCCc1noc(CN2CCCC2c2c(C)nn(C)c2C)n1 (stereo unspecified),-8.48
8,COc1ccc(F)cc1CN1CCCC(c2cc(C(N)=O)[nH]n2)C1 (stereo unspecified),-10.6
9,Cc1cnn(CC2CN(CC(=O)NCc3ccccn3)CCO2)c1 (stereo unspecified),14.8
10,Cc1cccc(-c2noc(CN3CCc4nn(C)c(=O)cc4C3)n2)c1,8.08
11,O=C(c1cc(Cl)c2c(c1)OCCO2)N1CCCC(n2cncn2)C1 (stereo unspecified),-10.2
12,Cc1nc(C)n(CC2CN(CCOc3ccccc3F)CCO2)n1 (stereo unspecified),-10.8
13,CC(C)c1nc(C2CCCN(Cc3nnc(C4CC4)o3)C2)no1 (stereo unspecified),-8.01
14,CNc1snc(C)c1C(=O)N1CCCC(n2ccnc2C(C)C)C1 (stereo unspecified),-5.8
15,Cc1cnn(CC2CCCCN2C(=O)CN(C)C2CC2)c1 (stereo unspecified),16.1
16,Cc1nc(C2CCCN(C(=O)c3cccc4c3OCO4)C2)no1 (stereo unspecified),-4.51
17,COc1ccccc1C(=O)NC(CC(=O)O)c1cccs1 (stereo unspecified),-3.76
18,Cc1cc(NC(=O)NCc2ccccc2OC(F)F)n(C)n1,-5.54
19,CC(CCc1ccccc1)NC(=O)Nc1cnn(CC(N)=O)c1 (stereo unspecified),-2.53
20,COc1ccc(COCC(O)CNC(=O)c2cccnc2)cc1 (stereo unspecified),32.7
21,CC(Cc1ccco1)NC(=O)Nc1cnn(CC(N)=O)c1 (stereo unspecified),-1.8
22,Cc1cnn(CC(C)NCc2ccc(S(C)(=O)=O)cc2)c1 (stereo unspecified),-1.78
23,c1ccc(-n2nnnc2CN2CCCC(Cn3cncn3)C2)cc1 (stereo unspecified),-0.367
24,O=C(NC1CCN(c2snc3ccccc23)CC1)C1CCC1,14.4
25,c1cnnc(N2CCCC2CNc2ncnc3ccccc23)c1 (stereo unspecified),11.3
26,c1cnnc(N2CCCC2CNc2nc3ccccc3o2)c1 (stereo unspecified),-2.85

row,SMILES,cytotoxicity at 70.5 h [%]
1,CCCc1ncc(C(=O)N2CCOC(c3nc(C)n[nH]3)C2)s1 (stereo unspecified),-7.33
2,CCc1ncncc1C(=O)N1CCOC(c2nc(C)n[nH]2)C1 (stereo unspecified),-3
3,CCc1nnsc1C(=O)N1CCOC(c2nc(C)n[nH]2)C1 (stereo unspecified),1.73
4,Cc1cnn(CC2CCCCN2C(=O)Cc2csc(C)n2)c1 (stereo unspecified),-7.78
5,Cc1nn(C)c(N(C)C)c1CNCc1ccccc1Cn1cncn1,-9.26
6,Cc1nc(C(=O)N2CCCC2c2c(C)nn(C)c2C)ccc1C#N (stereo unspecified),-7.57
7,COc1ccc(C(=O)N2CCC(Nc3cccnn3)CC2)c(OC)c1,-6.9
8,CC(NC(N)=O)C(=O)N1CCCN(Cc2nccn2C(C)C)CC1 (stereo unspecified),-11.9
9,Cc1nnc2n1CCN(CCOc1ccccc1)C2,-11.4
10,Cc1ccc(NC2CCN(C(=O)c3cccc(F)c3F)CC2)nn1,-13.7
11,Cc1ccc(-c2nc(CN3CCC(C(=O)N(C)C)CC3)cs2)o1,9.92
12,CCCc1n[nH]c(C2CN(CCNS(=O)(=O)CC)CCO2)n1 (stereo unspecified),7.53
13,O=S(=O)(CCN1CCOC(Cn2cccn2)C1)C(F)(F)F (stereo unspecified),11.7
14,CCn1cnnc1CNC(=O)c1cc(Cl)ccc1O,22.7
15,Cc1cccc(C(=O)NCc2ccc(N3CCCCC3)nc2)n1,-3.76
16,Cn1cc(C(=O)NC2CCN(C(=O)NCCSC(F)(F)F)CC2)cn1,-1.82
17,CCc1cccc(N2CCC(NC(=O)c3cc[nH]n3)CC2)c1,31.2
18,CCN1CCCC(CNC(=O)C2(c3cccc(Cl)c3)CC2)C1 (stereo unspecified),-0.608
19,CCN1CCC(CNC(=O)C2(c3cccc(C)c3)CC2)C1 (stereo unspecified),0.0668
20,CCn1cc(NC(=O)C2CCN(Cc3ccccc3C#N)CC2)cn1,-1.61
21,O=C(CCc1ccccc1F)NS(=O)(=O)c1ccc2c(c1)OCCCO2,-3.8
22,FC(F)(F)Cn1ccnc1CN1CCOC(Cn2cccn2)C1 (stereo unspecified),-2.61
23,Cc1nn(C)c(N(C)C)c1CNCc1cccnc1-n1cncn1,-5.08
